Like-named read-outs stand apart in the source and are kept apart here.
Tests used:
[1] = target: T1, Full-length (FL)-PRMT5-MEP50 enzyme complex (Homo sapiens, UniProt O14744); test: PRMT5-MEP50 Enzyme Methylation Assay (Version A); type: biochemical
T1 construct: Full-length (FL)-PRMT5-MEP50 enzyme complex (recombinant proteins from baculovirus-transfected Sf21 cells: FL-PRMT5; MW=73837 kDa and FL-MEP50; MW=38614); made in house; host or cells: baculovirus-transfected Sf21 cells
How it was run: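 Compound was pre-incubated with enzyme for 60 min, then reacted 150 min at 37° C. at final 1.0 nM PRMT5-MEP50, 15 μM SAM and 75 nM biotinylated H4R3(Me1) peptide, in 50 mM Bicine pH 8.0 with 1% DMSO. SAMDI mass-spectrometric readout of Me1→Me2 conversion. EC50 from 4- or 7-parameter regression.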

[2] = test system: symmetric dimethylation of arginine (SDMA) of PRMT5 substrates in MCF-7 cells; test: PRMT5 Cell Target Engagement (TE) Assay; type: cell-based; settings: 3 days treatment, SDMA high content imaging
How it was run: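 Readout is single-cell nuclear symmetric-dimethylarginine immunofluorescence (Alexa488), normalized to DMSO-treated cells. Compounds were applied to MCF-7 cells for 3 days at 37 °C, top concentration 10000 nM in 1:3 steps over ten points; curves fitted with 4-parameter robust fit.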

[3] = single EC50 = 4 parameter single site sigmoidal fit, EC50 1 = first value of 7 parameter biphasic fit, read-out: Enzyme Methylation Assay Version A (EC50 or EC50 1)
[4] = second value of 7 parameter biphasic fit, read-out: Enzyme Methylation Assay Version A (EC50 2)

T1 sequence (O14744 whole entry): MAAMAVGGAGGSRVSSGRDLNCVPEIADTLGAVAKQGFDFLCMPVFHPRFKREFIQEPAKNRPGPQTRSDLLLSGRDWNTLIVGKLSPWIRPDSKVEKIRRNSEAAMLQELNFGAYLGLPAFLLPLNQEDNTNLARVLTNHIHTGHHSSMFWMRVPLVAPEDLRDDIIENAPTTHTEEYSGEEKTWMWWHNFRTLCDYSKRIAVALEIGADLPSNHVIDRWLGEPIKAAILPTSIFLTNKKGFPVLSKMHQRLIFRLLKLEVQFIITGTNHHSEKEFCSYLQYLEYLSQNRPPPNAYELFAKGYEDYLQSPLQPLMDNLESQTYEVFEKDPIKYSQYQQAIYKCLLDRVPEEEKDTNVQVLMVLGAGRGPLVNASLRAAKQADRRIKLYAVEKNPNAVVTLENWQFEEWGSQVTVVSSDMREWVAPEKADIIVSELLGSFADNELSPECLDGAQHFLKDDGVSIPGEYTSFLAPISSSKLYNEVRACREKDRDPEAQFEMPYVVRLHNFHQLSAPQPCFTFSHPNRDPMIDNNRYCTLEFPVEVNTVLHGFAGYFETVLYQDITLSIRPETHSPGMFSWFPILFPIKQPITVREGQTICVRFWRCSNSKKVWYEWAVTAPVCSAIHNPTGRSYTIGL
T1 sequence (Q9BQA1 whole entry partner): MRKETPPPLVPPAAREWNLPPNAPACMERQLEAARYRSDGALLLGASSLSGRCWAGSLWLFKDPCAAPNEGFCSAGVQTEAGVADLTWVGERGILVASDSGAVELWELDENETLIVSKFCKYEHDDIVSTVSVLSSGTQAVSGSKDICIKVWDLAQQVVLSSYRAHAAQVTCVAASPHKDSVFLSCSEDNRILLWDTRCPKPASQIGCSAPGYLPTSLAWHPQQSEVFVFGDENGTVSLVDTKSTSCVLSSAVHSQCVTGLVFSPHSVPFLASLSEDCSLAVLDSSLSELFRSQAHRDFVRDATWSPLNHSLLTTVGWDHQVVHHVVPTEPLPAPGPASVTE

SMILES	EC50 [1, 3]	EC50 ([2]; Homo sapiens, MCF7, 72 h)	EC50 [1, 4]	EC50 [2]
N#CC1(c2cnc3nc(C(=O)N4CC[C@]5(Cc6ccccc6CN5)[C@H](O)C4)cn3c2)CC12CC2 (single isomer, unassigned) [Example 83]	3.28 nM		3160 nM	90.8 nM
Cc1ccnc2nc(C(=O)N3CC[C@]4(Cc5ccccc5CN4)[C@H](O)C3)nn12 [Example 193, [(3R,3′R)-3′-hydroxy-1,4-dihydro-1′H,2H-spiro[isoquinoline-3,4′-piperidin]-1′-yl](7-methyl[1,2,d]triazolo[1,5-a]pyrimidin-2-yl)methanone]	27000 nM	9610 nM		
Cc1ccc(C(=O)N2CC[C@]3(Cc4ccccc4CN3)[C@H](O)C2)c(OCCO)n1 [Example 196, [(3R,3′R)-3′-hydroxy-1,4-dihydro-1′H,2H-spiro[isoquinoline-3,4′-piperidin]-1′-yl][2-(2-hydroxyethoxy)-6-methyl-3-pyridinyl]methanone]	15.3 nM	409 nM	6310 nM	
O=C(c1cn2cc(C(F)(F)F)cnc2n1)N1CC[C@]2(Cc3ccccc3CN2)[C@H](O)C1 [Example 169, [(3R,3′R)-3′-hydroxy-1,4-dihydro-1′H,2H-spiro[isoquinoline-3,4′-piperidin]-1′-yl][6-(trifluoromethyl)imidazo[1,2-a]pyrimidin-2-yl]methanone]	1.51 nM	89 nM	427 nM	
Cc1cc(C(F)F)n2nc(C(=O)N3CC[C@]4(Cc5ccccc5CN4)[C@H](O)C3)nc2n1 [Example 179, (7-(difluoromethyl)-5-methyl-[1,2,4]triazolo[1,5-a]pyrimidin-2-yl)((3R,3′R)-3′-hydroxy-1,4-dihydro-2H-spiro[isoquinoline-3,4′-piperidin]-1′-yl)methanone]	513 nM	8760 nM	69200 nM	
O=C(c1cn2cc(Br)c(C(F)(F)F)nc2n1)N1CC[C@]2(Cc3ccccc3CN2)[C@H](O)C1 [Example 121, [6-bromo-7-(trifluoromethyl)imidazo[1,2-a]pyrimidin-2-yl][(3R,3′R)-3′-hydroxy-1,4-dihydro-1′H,2H-spiro[isoquinoline-3,4′-piperidin]-1′-yl]methanone]	4.88 nM	65.5 nM	3310 nM	
O=C(c1cn2cc(Cl)cnc2n1)N1CC[C@]2(Cc3ccccc3CN2)[C@H](O)C1 [Example 3, (6-chloroimidazo[1,2-a]pyrimidin-2-yl)((3R,3′R)-3′-hydroxy-1,4-dihydro-2H-spiro[isoquinoline-3,4′-piperidin]-1′-yl)methanone]	1.45 nM	14.5 nM	918 nM	
COCc1nc(C)cn2cc(C(=O)N3CC[C@]4(Cc5ccccc5CN4)[C@H](O)C3)nc12 [Example 250, [(3R,3′R)-3′-hydroxy-1,4-dihydro-1′H,2H-spiro[isoquinoline-3,4′-piperidin]-1′-yl][8-(methoxymethyl)-6-methylimidazo[1,2-a]pyrazin-2-yl]methanone]	610 nM	1730 nM		
COC[C@H]1C[C@@H](C(F)(F)F)Cn2cc(C(=O)N3CC[C@]4(Cc5ccccc5CN4)[C@H](O)C3)nc21 (single isomer, unassigned) [Example 155]	5.26 nM	122 nM	3980 nM	
Cc1c(C2CC2)cnc2nc(C(=O)N3CC[C@]4(Cc5ccccc5CN4)[C@H](O)C3)cn12 [Example 64, (6-cyclopropyl-5-methylimidazo[1,2-a]pyrimidin-2-yl)[(3R,3′R)-3′-hydroxy-1,4-dihydro-1′H,2H-spiro[isoquinoline-3,4′-piperidin]-1′-yl]methanone]	19.1 nM	756 nM	9770 nM	
O=C(c1cnc2ncnn2c1)N1CC[C@]2(Cc3ccccc3CN2)[C@H](O)C1 [Example 195, [(3R,3′R)-3′-hydroxy-1,4-dihydro-1′H,2H-spiro[isoquinoline-3,4′-piperidin]-1′-yl]([1,2,d]triazolo[1,5-a]pyrimidin-6-yl)methanone]	15700 nM	≥ 10000 nM		
COC(C)c1cc(C(F)F)cn2cc(C(=O)N3CC[C@]4(Cc5ccccc5CN4)[C@H](O)C3)nc12 (single isomer, unassigned) [Example 80]	1.25 nM			8.38 nM
COC(C)c1cc(Br)cn2cc(C(=O)N3CC[C@]4(Cc5ccc(Cl)cc5CN4)[C@H](O)C3)nc12 (single isomer, unassigned) [Example 226]	1.4 nM	5.04 nM		
Cc1c(Br)cnc2nc(C(=O)N3CC[C@]4(Cc5ccccc5CN4)[C@H](O)C3)cn12 [Example 119, (6-bromo-5-methylimidazo[1,2-a]pyrimidin-2-yl)[(3R,3′R)-3′-hydroxy-1,4-dihydro-1′H,2H-spiro[isoquinoline-3,4′-piperidin]-1′-yl]methanone]	11.8 nM	274 nM	6460 nM	
O=C(c1cn2cc(Br)cc(Br)c2n1)N1CC[C@]2(Cc3ccccc3CN2)[C@H](O)C1 [Example 218, (6,8-dibromoimidazo[1,2-a]pyridin-2-yl)[(3R,3′R)-3′-hydroxy-1,4-dihydro-1′H,2H-spiro[isoquinoline-3,4′-piperidin]-1′-yl]methanone]	1.97 nM	4.07 nM		
O=C(c1cn2cc(F)ccc2n1)N1CC[C@]2(Cc3ccccc3CN2)[C@H](O)C1 [Example 38, (6-fluoroimidazo[1,2-a]pyridin-2-yl)((3R,3’R)-3′-hydroxy-1,4-dihydro-2H-spiro[isoquinoline-3,4′-piperidin]-1′-yl)methanone]	3.84 nM	16.2 nM	2460 nM	

The remaining lines, values ahead:

EC50 [1, 3]	EC50 ([2]; Homo sapiens, MCF7, 72 h)	EC50 [1, 4]	EC50 [2]	SMILES
1.24 nM	2.65 nM			CO[C@H](C)c1cc(-c2cnn(C)c2C)cn2cc(C(=O)N3CC[C@]4(Cc5ccccc5CN4)[C@H](O)C3)nc12 [Example 245, {6-(1,5-dimethyl-1H-pyrazol-4-yl)-8-[(1R)-1-methoxyethyl]imidazo[1,2-a]pyridin-2-yl}[(3R,3′R)-3′-hydroxy-1,4-dihydro-1′H,2H-spiro[isoquinoline-3,4′-piperidin]-1′-yl]methanone]
0.378 nM		182 nM	11.8 nM	COC(C)c1cc(C)c2nc(C(=O)N3CC[C@]4(Cc5ccccc5CN4)[C@H](O)C3)cn2c1 (single isomer, unassigned) [Example 123]
0.244 nM	6.61 nM	123 nM		COC(C)c1cc(C2CC2)cn2cc(C(=O)N3CC[C@]4(Cc5ccccc5CN4)[C@H](O)C3)nc12 (stereo partly drawn) [Example 132, [6-cyclopropyl-8-(1-methoxyethyl)imidazo[1,2-a]pyridin-2-yl][(3R,3′R)-3′-hydroxy-1,4-dihydro-1′H,2H-spiro[isoquinoline-3,4′-piperidin]-1′-yl]methanone]
0.814 nM	8.7 nM	468 nM		Cc1ccc2nc(C(=O)N3CC[C@]4(Cc5ccccc5CN4)[C@H](O)C3)cn2c1 [Example 40, ((3R,3’R)-3′-hydroxy-1,4-dihydro-2H-spiro[isoquinoline-3,4′-piperidin]-1′-yl)(6-methylimidazo[2,2-a]pyridin-2-yl)methanone]
0.826 nM	19.7 nM	316 nM		CN1CCC(Oc2nc(Br)cn3cc(C(=O)N4CC[C@]5(Cc6ccccc6CN5)[C@H](O)C4)nc23)C1=O (single isomer, unassigned) [Example 94, (R or S)-3-((6-bromo-2-((3R,3′R)-3′-hydroxy-1,4-dihydro-2H-spiro[isoquinoline-3,4′-piperidine]-1′-carbonyl)imidazo[1,2-a]pyrazin-8-yl)oxy)-1-methylpyrrolidin-2-one]
0.929 nM	6.47 nM	733 nM		CC1OC(=O)Nc2cc(C(=O)N3CC[C@]4(Cc5ccccc5CN4)[C@H](O)C3)ccc21 (stereo partly drawn) [compound 171, 7-{[(3R,3′R)-3′-hydroxy-1,4-dihydro-1′H,2H-spiro[isoquinoline-3,4′-piperidin]-1′-yl]carbonyl}-4-methyl-1,4-dihydro-2H-3,1-benzoxazin-2-one]
0.438 nM	16.5 nM	151 nM		CC(C)(O)COc1nc(Br)cn2cc(C(=O)N3CC[C@]4(Cc5ccccc5CN4)[C@H](O)C3)nc12 [Example 20, (6-bromo-8-(2-hydroxy-2-methylpropoxy)imidazo[1,2-a]pyrazin-2-yl)((3R,3’R)-3′-hydroxy-1,4-dihydro-2H-spiro[isoquinoline-3,4′-piperidin]-1′-yl)methanone]
1.15 nM	3.88 nM	347 nM		Cc1cc(Br)c2nc(C(=O)N3CC[C@]4(Cc5ccccc5CN4)[C@H](O)C3)cn2c1 [Example 49, (8-bromo-6-methylimidazo[1,2-a]pyridin-2-yl)((3R,3’R)-3′-hydroxy-1,4-dihydro-2H-spiro[isoquinoline-3,4′-piperidin]-1′-yl)methanone]
0.215 nM		72.4 nM	4.49 nM	O=C(c1cn2cc(Br)cc(C(O)C(F)(F)F)c2n1)N1CC[C@]2(Cc3ccccc3CN2)[C@H](O)C1 (single isomer, unassigned) [Example 31, (6-bromo-8-((S or R)-2,2,2-trifluoro-1-hydroxyethyl)imidazo[1,2-a]pyridin-2-yl)((3R,3’R)-3′-hydroxy-1,4-dihydro-2H-spiro[isoquinoline-3,4′-piperidin]-1′-yl)methanone]
